One data set deals with fly heart. The experiment in a line: Drug application to the fly heart, induction of arrhythmias. The data set is classed as in vivo, Drosophila. Particulars: HERG and KCNQ channels present in fly heart. The text has this:
According to another embodiment of the invention, methods are provided for testing a compound for cardioactivity comprising: (a) providing a composition comprising an excised, denervated Drosophila heart that retains myogenic activity, and a physiologically acceptable hemolymph fluid in contact with said Drosophila heart; (b) contacting the composition with the compound; and (c) assessing the effect of the compound on the myogenic activity of the semi-intact Drosophila heart. In one such embodiment the method comprises assessing the effect of the compound on myogenic activity of the semi-intact Drosophila heart by producing images of the semi-intact Drosophila heart and analyzing the images. In another such embodiment, the method comprises determining a member of the group consisting of heart period, heart rate, diastolic interval, systolic interval, standard deviation of heart period, standard deviation of heart rate, standard deviation of diastolic interval, standard deviation of systolic interval, percent fractional shortening of heart contraction, arrhythmia index, velocity of heart muscle contraction, and directionality of heart muscle contraction.
These are thought to be due to drug effects on both HERG and KCNQ channels. […] Thus, this system can be used to screen for possible drug side effects.

The next data set deals with patients. Particulars: some patients; thought to be due to effects on HERG and KCNQ channels; cited from earlier work.

The values below come from patent publication US9186093B2, “Compositions and methods for screening cardioactive drugs” (THE REGENTS OF THE UNIVERSITY OF CALIFORNIA, priority 2008, dated 2015).

For `CCCCCCCN(CC)CCCC(O)c1ccc(NS(C)(=O)=O)cc1` (stereo not shown) [ibutilide], the “induction of arrhythmias in the fly” value in the data set on fly heart was “induce arrhythmias in the fly”. Further, in the data set on patients, the “induction of arrhythmias in patients” value was “induce arrhythmias in some patients”.
`CCCCCCC[N+](CC)(CC)CCCCc1ccc(Cl)cc1` [clofilium]: in the data set on fly heart, the “induction of arrhythmias in the fly” value was “induce arrhythmias in the fly”. Further, in the data set on patients, the “induction of arrhythmias in patients” value is listed as “induce arrhythmias in some patients”.
